What was measured:
cytomegalovirus (CMV) = details: cited from earlier work
[1] = system: retinal neovascularization; assay: intravitreal IGF-1 rabbit model of retinal angiogenesis; format: in vivo, pigmented rabbits; details: for ophthalmoscopy findings: all rabbits
Protocol: Pigmented rabbits were selected for study after considering the ocular anatomy, animal supply and established use of the species in ophthalmology. Growth factor was injected into the vitreous of pigmented rabbits (n=30) as previously described. Briefly, rabbits were anesthetized with ketamine and xylazine and a 30 g needle was used to withdraw 80 μl of fluid from the anterior eye chamber under an operating microscope. Then a 30 g needle was used to administer 0.1 ml of balanced salt solution containing 600 μg of IGF-1 adjacent to the surface of the retina near the optic nerve head. The rabbits were placed in a supine position for 30–60 minutes to facilitate solution dispersal onto the vascularized medullary ray and disc. Control animals (n=10) received the same dose of heat-inactivated protein (IGF-I held at 100° C. for 30 min). Animals were periodically examined using indirect ophthalmoscopy, fundus photography, and fluorescein angiography from days 2 through 21.
The temporal sequence of the anatomical changes seen in the IGF 1-injected eyes is as follows. […] The fundus of control eyes remained normal in appearance. […] Numerous distended vessels with edematous endothelial cells were found on the surface of the retina along with extensive proliferation of their extracellular matrix. […] Reduplication of the basement membrane, a strong indicator of endothelial cell hyperreactivity, was a consistent finding in all IGF-1 treated eyes. Endothelial cell mitosis was validated using antibody to proliferating cell nuclear antigen. Systemic unpackaged peptide, e.g. lanreotide can be tested for its ability to inhibit IGF-1 induced neovascularization in this rabbit model.

[2] = continuous infusion pump for 4 weeks, cited from earlier work
[3] = after a similar dose (200 μg/kg); cited from earlier work
[4] = in vivo; cited from earlier work
[5] = compared with octreotide; cited from earlier work
insulin secretion = details: normal physiological conditions; cited from earlier work
[6] = system: chorioallantoic membrane of the developing chick embryo; details: chick chorioallantoic membrane assay; cited from earlier work
[7] = octreotide in patients with severe proliferative diabetic retinopathy (Grant, 1987–1994)
[8] = system: human retinal endothelial cells (HREC); assay: proliferation and [3H] thymidine incorporation in growth factor stimulated HREC; format: cell-based
[9] = pilot study of continuous octreotide infusion to prevent progression of diabetic retinopathy; format: in vivo, human
[10] = several months of continuous infusion; 4 patients; cited from earlier work
[11] = six patients, 25 to 100 μg three times a day

Nc1nc(O)c2ncn(COC(CO)CO)c2n1 [ganciclovir]
CMV-encephalitis (cytomegalovirus (CMV); at autopsy): widespread CMV-encephalitis
treatment of CMV retinitis (cytomegalovirus (CMV); verified at autopsy): successful treatment of CMV retinitis

IGF-1: insulin-like growth factor 1, injected intravitreally to induce retinal neovascularization
ophthalmoscopy findings ([1]; 3 days after intravitreal injection of 600 μg): hyperemia with vascular engorgement
microscopic findings on the surface of the retina ([1]; all eyes treated): abnormal vessels were observed on the surface of the retina
ophthalmoscopy findings ([1]; by day 7): Vascular tortuosity, intraretinal hemorrhage, and severe increased hyperemia surrounding the optic disc
ophthalmoscopy findings ([1]; by day 21): Fibrosis developed over the optic disc and medullary ray

lanreotide
disease regressed [2]: 2 patients
disease progression halted ([2]; subjects who completed dosing): 8 of 8
LNT levels in rat eyes [3]: unable to detect significant LNT levels
excreted intact [4]: > 90%
stability of the peptide [4]: stable
clinical tolerance [5]: better tolerated than octreotide
effect on insulin secretion (insulin secretion): suppress insulin secretion
inhibition of angiogenesis [6]: more potent in inhibiting angiogenesis compared to the natural somatostatin tetradecapeptide

octreotide
HgA1c ([7]; all seven study patients): reductions
sense of well-being ([7]; all seven study patients): improved
visual acuity ([7]; all seven study patients): improved
posterior pole neovascularization ([7]; seventh patient): not affected
side effects leading to stopping the drug ([7]; seventh patient): gastrointestinal side effects
iris neovascularization ([7]; seventh patient with severe bilateral neovascular glaucoma): regressed completely
disease progression during treatment period [7, 11]: None of the six patients showed disease progression
regression of NVD [7, 11]: four
[3H] thymidine incorporation ([8]; IGF-1 and b-FGF stimulated HREC): dose-dependent inhibition
proliferation of HREC ([8]; IGF-1 stimulated cultures): significantly decreased
inhibitory effect on proliferation of HREC ([8]; b-FGF stimulated cultures): 40–45%
cell proliferation ([8]; cells grown in control medium): minimal effect
HgA1c ([9]; four octreotide-treated subjects, within the first 6 months of therapy): normalized
suppression of GH and IGF-1 levels into the hypopituitary range ([9]; four patients): not achieved in any patient
clinical or angiographic improvement ([9]; four patients, continuous infusion, doses up to 5000 μg/day): no patient showed clear clinical or angiographic improvement
progression to high risk characteristics requiring laser therapy ([9]; four patients, in at least one eye): Laser therapy was initiated in all four patients
visual acuity ([9]; patients receiving octreotide): statistically significant improvement
retinal function [10]: improved
